Measured values published in the supplement of paper PMC10307832.

Experiments:
Test in all cases: relative viability (nuclei count vs DMSO), 5 days (fraction); higher = more cells survive
Erlotinib + Pictilisib = compound: C#Cc1cccc(Nc2ncnc3cc(OCCOC)c(OCCOC)cc23)c1 [Erlotinib] + CS(=O)(=O)N1CCN(Cc2cc3nc(-c4cccc5[nH]ncc45)nc(N4CCOCC4)c3s2)CC1 [Pictilisib] (partner 1 µM)
Method in brief: (§1)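 Dosing by pin tool came one day after lung cancer cell lines were seeded in 1536-well plates, using either one drug or a fixed anchor-drug dose plus five library-drug doses (not always all listed) in √10 steps. After 5 days, nuclei were counted on 4× images. Relative viability is treated-well nuclei count divided by vehicle-well nuclei count, and values are medians of duplicate plates.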

Erlotinib + Linsitinib = compound: C#Cc1cccc(Nc2ncnc3cc(OCCOC)c(OCCOC)cc23)c1 [Erlotinib] + C[C@]1(O)C[C@@H](c2nc(-c3ccc4ccc(-c5ccccc5)nc4c3)c3c(N)nccn32)C1 [Linsitinib] (partner 1 µM)
Method in brief: as §1

AT9283 + Foretinib = compound: O=C(Nc1c[nH]nc1-c1nc2ccc(CN3CCOCC3)cc2[nH]1)NC1CC1 [AT9283] + COc1cc2c(Oc3ccc(NC(=O)C4(C(=O)Nc5ccc(F)cc5)CC4)cc3F)ccnc2cc1OCCCN1CCOCC1 [Foretinib] (partner 0.25 µM)
Method in brief: as §1

AT9283 + OSI-027 = compound: O=C(Nc1c[nH]nc1-c1nc2ccc(CN3CCOCC3)cc2[nH]1)NC1CC1 [AT9283] + COc1cccc2cc(-c3nc([C@H]4CC[C@H](C(=O)O)CC4)n4ncnc(N)c34)[nH]c12 [OSI-027] (partner 0.5 µM)
Method in brief: as §1

AT9283 + Phenformin = compound: O=C(Nc1c[nH]nc1-c1nc2ccc(CN3CCOCC3)cc2[nH]1)NC1CC1 [AT9283] + N=C(N)NC(=N)NCCc1ccccc1 [Phenformin] (partner 250 µM)
Method in brief: as §1

Cell Line	relative viability (Erlotinib + Pictilisib; first compound 0.02 µM)	relative viability (Erlotinib + Pictilisib; first compound 0.2 µM)	relative viability (Erlotinib + Pictilisib; first compound 0.6325 µM)	relative viability (Erlotinib + Pictilisib; first compound 2 µM)	relative viability (Erlotinib + Linsitinib; first compound 0.02 µM)	relative viability (Erlotinib + Linsitinib; first compound 0.2 µM)	relative viability (Erlotinib + Linsitinib; first compound 0.6325 µM)	relative viability (Erlotinib + Linsitinib; first compound 2 µM)	relative viability (AT9283 + Foretinib; first compound 0.003 µM)	relative viability (AT9283 + Foretinib; first compound 0.03 µM)	relative viability (AT9283 + Foretinib; first compound 0.09487 µM)	relative viability (AT9283 + Foretinib; first compound 0.3 µM)	relative viability (AT9283 + OSI-027; first compound 0.003 µM)	relative viability (AT9283 + OSI-027; first compound 0.03 µM)	relative viability (AT9283 + OSI-027; first compound 0.09487 µM)	relative viability (AT9283 + OSI-027; first compound 0.3 µM)	relative viability (AT9283 + Phenformin; first compound 0.003 µM)	relative viability (AT9283 + Phenformin; first compound 0.03 µM)	relative viability (AT9283 + Phenformin; first compound 0.09487 µM)	relative viability (AT9283 + Phenformin; first compound 0.3 µM)
HCC-78	0.195	0.207	0.218	0.21	0.5	0.439	0.401	0.383	0.5	0.485	0.331	0.305	0.519	0.304	0.271	0.276	0.611	0.511	0.333	0.26
EPLC-272H	0.314	0.279	0.352	0.242	1.11	1.18	1.06	0.802	0.622	0.217	0.12	0.123	0.287	0.312	0.209	0.224	0.33	0.309	0.148	0.141
NCI-H647	0.445	0.359	0.499	0.46	1.2	1.15	1.19	0.971	1.41	0.396	0.273	0.202	0.782	0.524	0.173	0.132	0.525	0.305	0.145	0.0997
NCI-H661	0.333		0.416	0.294	0.731	0.432	0.663	0.493	1.01	0.472	0.384	0.364	0.767	0.529	0.313	0.344	0.276	0.269	0.252	0.236
NCI-H23	0.56	0.517	0.61	0.464	0.643	0.506	0.752	0.604	0.985	0.717	0.412	0.32	0.666	0.674	0.344	0.281	0.811	0.744	0.413	0.297
NCI-H727	0.456	0.344	0.346	0.339	0.284	0.349	0.282	0.232	0.689	0.649	0.437	0.331	0.657	0.483	0.487	0.324	0.39	0.447	0.298	0.39
EKVX	0.405	0.217	0.191	0.109	0.941	0.395	0.235	0.117	0.775	0.728	0.626	0.257	0.661	0.655	0.503	0.26	0.237	0.223	0.212	0.196
NCI-H2087	0.842	0.844	0.932		1.03	1.14	1.06	0.828	1.03	0.388	0.195	0.132	0.637	0.392	0.14	0.134	0.458	0.251	0.111	0.118
SK-LU-1	0.695	0.665	0.598	0.58	1.46	1.11	1.18	0.75	0.925	0.385	0.214	0.27	0.366	0.276	0.22	0.165	0.582	0.431	0.179	0.179
NCI-H322M	0.456	0.499	0.347	0.365	0.8	0.727	0.512	0.337	0.958	0.544	0.41	0.462	0.396	0.306	0.472	0.464	0.65	0.486	0.414	0.387
HCC-366	0.185	0.0789	0.12	0.137	0.752	0.52	0.574	0.564	0.962	0.881	0.0841	0.0697	0.834	0.845	0.048	0.0995	0.609	0.657	0.0853	0.0845
NCI-H2085	0.459	0.46	0.513	0.358	0.858	0.728	0.664	0.76	1.1	0.736	0.51	0.338	0.896	0.731	0.553	0.321	0.702	0.664	0.597	0.264
NCI-H1915			1.07	0.948	1.15	1.17	1.1	1.08	1.04	0.995	0.451	0.256	0.619	0.619	0.239	0.196	0.362	0.342	0.174	0.168
NCI-H1944	0.357	0.304	0.346	0.33	1.17		0.776	0.642	0.821	0.373	0.267	0.254	0.391	0.291	0.201	0.229	0.201	0.171	0.122	0.136
NCI-H1355	0.499	0.392	0.407	0.312	0.921	0.815	0.723	0.559	0.871	0.952	0.582	0.272	0.399	0.436	0.276	0.221	0.478	0.449	0.362	0.238
HCC-827	0.374	0.241	0.273	0.329	0.281	0.188	0.173	0.166	1.05	0.745	0.331	0.244	0.694	0.647	0.597	0.181	0.399	0.352	0.356	0.196

Cell Line	relative viability (Erlotinib + Pictilisib; first compound 0.02 µM)	relative viability (Erlotinib + Pictilisib; first compound 0.2 µM)	relative viability (Erlotinib + Pictilisib; first compound 0.6325 µM)	relative viability (Erlotinib + Pictilisib; first compound 2 µM)	relative viability (Erlotinib + Linsitinib; first compound 0.02 µM)	relative viability (Erlotinib + Linsitinib; first compound 0.2 µM)	relative viability (Erlotinib + Linsitinib; first compound 0.6325 µM)	relative viability (Erlotinib + Linsitinib; first compound 2 µM)	relative viability (AT9283 + Foretinib; first compound 0.003 µM)	relative viability (AT9283 + Foretinib; first compound 0.03 µM)	relative viability (AT9283 + Foretinib; first compound 0.09487 µM)	relative viability (AT9283 + Foretinib; first compound 0.3 µM)	relative viability (AT9283 + OSI-027; first compound 0.003 µM)	relative viability (AT9283 + OSI-027; first compound 0.03 µM)	relative viability (AT9283 + OSI-027; first compound 0.09487 µM)	relative viability (AT9283 + OSI-027; first compound 0.3 µM)	relative viability (AT9283 + Phenformin; first compound 0.003 µM)	relative viability (AT9283 + Phenformin; first compound 0.03 µM)	relative viability (AT9283 + Phenformin; first compound 0.09487 µM)	relative viability (AT9283 + Phenformin; first compound 0.3 µM)
RERF-LC-KJ	0.579	0.412	0.376	0.307	0.914	0.837	0.736	0.565	0.922	0.498	0.279	0.22	0.609	0.544	0.308	0.279	0.408	0.364	0.25	0.242
NCI-H2228	0.385	0.405	0.351	0.348	0.515	0.75	0.557	0.514	0.968	0.613	0.26	0.104	0.585	0.648	0.355	0.126	0.363	0.256	0.129	0.107
LK-2	0.649	0.519	0.735	0.599	0.557	0.43	0.869	0.377	0.965	0.31	0.159	0.129	0.2	0.151	0.156	0.143	0.516	0.156	0.136	0.175
NCI-H520	0.262	0.279	0.335	0.298	0.98	0.915	1.03	0.965	0.95	0.326	0.337	0.295	0.256	0.198	0.185	0.172	0.572	0.284	0.243	0.174
HOP-62	1.08	0.725	0.788	0.625	1.14	0.959	1.01	0.912	1.12	0.667	0.324	0.321	0.868	0.792	0.53	0.253	0.694	0.572	0.418	0.25
PC-14	0.221	0.0861	0.0876	0.0584	0.426	0.289	0.269	0.219	0.956	0.796	0.581	0.16	0.878	0.745	0.0842	0.08	0.51	0.468	0.197	0.109
UMC-11	0.795	0.7	1.04	0.816	1.04	1.05	1.16	0.945	0.996	0.181	0.175	0.184	0.559	0.17	0.152	0.167	0.308	0.184	0.178	0.171
NCI-H2405	0.36	0.452	0.589	0.469	1.01		0.994	0.768	1.05	0.82	0.352	0.312	0.685	0.654	0.533	0.262	0.415	0.362	0.28	0.251
HARA	0.555	0.46	0.311	0.155	1.13	0.834	0.59	0.197	0.79	0.151	0.122	0.109	0.612	0.327	0.073	0.0736	0.499	0.261	0.208	0.0751
NCI-H1437	0.431	0.408	0.482	0.347	1.05	0.941	0.83	0.526	1.33	0.974	0.533	0.323	0.933	0.848	0.669	0.206	0.294	0.263	0.149	0.127
COR-L23	0.898	0.692	1.04	0.656	1.21	0.95	1.07		1.01	0.623	0.216	0.182	0.755	0.658	0.245	0.153	0.45	0.221	0.128	0.12
NCI-H1395	0.71	0.638	0.567	0.733	1.1	1.1	1.23	1.06	0.729	0.88	0.465	0.397	0.523	0.541	0.356	0.363	0.391	0.43	0.316	0.321
NCI-H1563	0.63	0.706	0.679	0.636	1.2	1.23	1.2	1.15	0.906	0.765	0.708	0.633	0.769	0.748	0.645	0.525	0.638	0.663	0.605	0.556
NCI-H358	0.319	0.313	0.303	0.28	0.817	0.558	0.377	0.292	0.653	0.155	0.0898	0.0981	0.899	0.186	0.0868	0.0708	0.309	0.1	0.0619	0.0785
201T	0.694	0.651	0.692	0.664	0.968	0.933	1.01	0.854	1.12	1.07	0.274	0.247	0.663	0.776	0.188	0.206	0.445	0.419	0.345	0.285
